In patent US11530206B2, “Phenylaminopyrimidine amide autophagy inhibitors and methods of use thereof” (Deciphera Pharmaceuticals, LLC, priority 2019, dated 2022) one finds IC50 data, which are given here for twelve molecules.

The IC50 is the concentration that gives 50% inhibition.

Experiment [1] concerns ULK kinase. Briefly: pATG13 levels of mutant KRas HCT-116 cells after treatment with ULK inhibitors in combination with trametinib (ELISA). It is filed as cell-based, human. The settings on record: HCT-116 colon cancer cells, 250 nM trametinib, overnight, pS318-ATG13. The procedure: The following day, 10 μL of media containing trametinib or DMSO as a control was added to wells. […] A dose response of a test compound (0.6 μL per well) was added. DMSO (0.6 μL) was added to control wells. The plate was briefly shaken to mix wells and then incubated at 37° C. overnight. The next day, the media was aspirated and cells were washed with Dulbecco's Phosphate Buffered Saline (Gibco). Cells were lysed using MPER lysis buffer (Pierce, Rockford, Ill.) containing Halt Phosphatase and Protease Inhibitors (Pierce, Rockford, Ill.) and Phosphatase inhibitor cocktail 2 (Sigma, St. Louis, Mo.) at 4° C. for 10 minutes with shaking.
(§1) Plate wells were washed with ELISA wash buffer. Cell lysate was added to wells and incubated at room temperature for 2 hours. Plate wells were washed with ELISA wash buffer. […] Plate wells were washed with ELISA wash buffer. […] Plate wells were washed with ELISA wash buffer. […] The reaction was stopped with 2N Sulfuric Acid. The plate was analyzed at on a plate reader measuring absorbance at 450 nm and 540 nm (background). Signal was calculated by first subtracting the background absorbance at 540 nm from the absorbance at 450 nm for each well. Next, the background corrected absorbance at 450 nm from blank wells was subtracted from test wells. Data was compared to control wells to determine % ATG13 phosphorylation. GraphPad Prism was used to calculate IC50 values.
A general note: ELISA stands for enzyme-linked immunosorbent assay.

Experiment [2] concerns ULK kinase. The experiment can be described thus: pATG13 levels of mutant BRAF A375 cells after treatment with ULK inhibitors in combination with trametinib (ELISA). It is filed as cell-based, human. The settings on record: A375 malignant melanoma cells (mutant BRAF), 250 nM trametinib, overnight, pS318-ATG13. The procedure:
A375 human malignant melanoma cancer cells (20000 cells/well) were added to a 96-well tissue-culture treated plate in 100 μL of pre-warmed DMEM medium supplemented with 10% characterized fetal bovine serum (Invitrogen, Carlsbad, Calif.), 100 units/mL penicillin G, and 100 μg/mL streptomycin and allowed to grow overnight at 37° C., 5% CO2, and 95% humidity. The following day, 100 μL of media containing trametinib or DMSO as a control was added to wells. […] A dose response of a test compound (0.5 μL per well) was added. DMSO (0.5 μL) was added to control wells. The plate was briefly shaken to mix wells and then incubated at 37° C. overnight. The next day, the media was aspirated and cells were washed with Dulbecco's Phosphate Buffered Saline (Gibco). Cells were lysed using MPER lysis buffer (Pierce, Rockford, Ill.) containing Halt Phosphatase and Protease Inhibitors (Pierce, Rockford, Ill.) and Phosphatase inhibitor cocktail 2 (Sigma, St. Louis, Mo.) at 4° C. for 10 minutes with shaking.
as §1

Experiment [3] has as its system ULK kinase. Briefly: pATG13 levels of mutant KRas MiaPaCa-2 cells after treatment with ULK inhibitors in combination with trametinib (ELISA). The class given is cell-based, human. The settings on record: MiaPaCa-2 pancreatic cancer cells, 250 nM trametinib, overnight, pS318-ATG13. An outline of the steps: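 MiaPaCa-2 cells in DMEM with 10% FBS and 2.5% horse serum were pretreated with trametinib or DMSO, then given a test-compound dose response overnight at 37° C. Lysates were assayed for phospho-ATG13 by ELISA (A450 minus A540 background, blank-corrected). % phosphorylation was calculated relative to controls and fitted to IC50.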

For experiment [4], the system named is ULK kinase. Briefly: pATG13 levels of mutant KRas A549 cells after treatment with ULK inhibitors in combination with trametinib (ELISA). The following applies: A549 (KRAS mutant) lung cancer cells, 250 nM trametinib, overnight, pS318-ATG13. It is filed as cell-based, human. An outline of the steps:
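Lysates with phosphatase/protease inhibitors assayed by pATG13 ELISA, A450 minus A540 background and blank-corrected. % ATG13 phosphorylation versus DMSO controls fitted to IC50.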

For another experiment, the target named is T1, LRRK2 kinase (Homo sapiens, UniProt Q5S007).
T1 construct: purchased Thermo Fisher
T1 sequence (Q5S007 with tags, fused parts or gaps): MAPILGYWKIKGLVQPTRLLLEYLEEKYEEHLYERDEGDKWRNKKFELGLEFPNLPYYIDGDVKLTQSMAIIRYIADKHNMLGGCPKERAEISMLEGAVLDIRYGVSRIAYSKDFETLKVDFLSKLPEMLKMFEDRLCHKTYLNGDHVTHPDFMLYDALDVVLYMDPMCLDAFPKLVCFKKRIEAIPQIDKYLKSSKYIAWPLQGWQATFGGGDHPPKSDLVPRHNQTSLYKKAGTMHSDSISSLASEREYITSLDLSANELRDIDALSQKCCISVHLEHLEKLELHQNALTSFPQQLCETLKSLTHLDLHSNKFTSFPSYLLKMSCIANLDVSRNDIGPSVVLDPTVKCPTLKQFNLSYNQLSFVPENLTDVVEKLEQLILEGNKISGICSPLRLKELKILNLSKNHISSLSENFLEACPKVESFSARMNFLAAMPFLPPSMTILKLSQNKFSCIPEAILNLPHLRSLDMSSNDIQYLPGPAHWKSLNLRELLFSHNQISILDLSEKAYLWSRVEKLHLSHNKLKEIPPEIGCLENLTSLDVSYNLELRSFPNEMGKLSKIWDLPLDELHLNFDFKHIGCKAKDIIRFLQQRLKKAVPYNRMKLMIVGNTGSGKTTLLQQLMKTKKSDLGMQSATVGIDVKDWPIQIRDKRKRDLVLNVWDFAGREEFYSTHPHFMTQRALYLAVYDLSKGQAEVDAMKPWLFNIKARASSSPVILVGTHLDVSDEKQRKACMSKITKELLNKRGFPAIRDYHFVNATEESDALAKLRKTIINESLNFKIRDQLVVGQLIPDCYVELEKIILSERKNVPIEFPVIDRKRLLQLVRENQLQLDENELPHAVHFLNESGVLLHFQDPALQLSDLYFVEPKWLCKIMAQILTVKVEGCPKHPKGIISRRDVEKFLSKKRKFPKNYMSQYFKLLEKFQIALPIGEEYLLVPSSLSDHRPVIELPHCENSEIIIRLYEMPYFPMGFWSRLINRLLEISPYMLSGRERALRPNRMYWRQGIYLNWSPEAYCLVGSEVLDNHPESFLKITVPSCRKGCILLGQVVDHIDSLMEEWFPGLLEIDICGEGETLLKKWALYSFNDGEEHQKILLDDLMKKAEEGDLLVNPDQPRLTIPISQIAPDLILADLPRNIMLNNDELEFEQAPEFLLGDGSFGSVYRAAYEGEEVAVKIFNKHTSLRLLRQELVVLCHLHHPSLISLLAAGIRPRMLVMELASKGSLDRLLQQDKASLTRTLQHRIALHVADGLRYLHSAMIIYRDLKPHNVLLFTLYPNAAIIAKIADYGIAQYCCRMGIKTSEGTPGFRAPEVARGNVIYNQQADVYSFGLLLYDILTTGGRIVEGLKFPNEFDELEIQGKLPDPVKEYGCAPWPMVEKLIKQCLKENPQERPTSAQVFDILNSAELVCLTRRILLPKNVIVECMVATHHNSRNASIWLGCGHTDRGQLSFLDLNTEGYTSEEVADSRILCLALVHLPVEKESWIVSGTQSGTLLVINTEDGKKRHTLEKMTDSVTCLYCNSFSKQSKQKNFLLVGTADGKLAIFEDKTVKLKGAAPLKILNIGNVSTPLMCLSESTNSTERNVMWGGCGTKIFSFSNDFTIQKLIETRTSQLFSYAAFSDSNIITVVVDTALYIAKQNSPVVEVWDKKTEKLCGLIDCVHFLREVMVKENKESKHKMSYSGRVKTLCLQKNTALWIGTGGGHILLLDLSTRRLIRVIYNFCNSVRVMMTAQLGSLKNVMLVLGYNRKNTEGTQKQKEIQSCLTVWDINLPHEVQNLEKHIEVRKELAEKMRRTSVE
Briefly: Biochemical assay for LRRK2 (coupled pyruvate kinase/lactate dehydrogenase assay). The settings on record: 26.4 nM LRRK2 (residues 970-2528), peptide substrate, 1 mM ATP. An outline of the steps: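 Recombinant LRRK2 (26.4 nM) with 0.1 mM peptide substrate and 1 mM ATP in Tris pH 7.5/MgCl2 buffer; ADP production coupled via PK/LDH to NADH oxidation, A340 read continuously 6 h at 30 °C. Rates from 2–3 h window converted to % inhibition versus no-compound and reference-inhibitor controls; IC50 fitted.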

Take `CN1CCN(c2ccc(Nc3ncc(C(F)(F)F)c(NCCCN4CCCCC4=O)n3)c(C3CC3)c2)CC1` [Example 14]: the IC50 was 0.01 to 0.1 µM in the experiment on ULK kinase [1]; 0.01 to 0.1 µM in the experiment on ULK kinase [2]; 0.01 to 0.1 µM with ULK kinase [3]; 0.01 to 0.1 µM in the experiment on ULK kinase [4]; 0.001 to 0.1 µM on LRRK2 kinase.

Consider `CCc1cc(N2CCN(C)CC2)ccc1Nc1ncc(C(F)(F)F)c(NCCCN2CCCOC2=O)n1` [Example 39], for which the IC50 is 0.01 to 0.1 µM with ULK kinase [1]; 0.01 to 0.1 µM in the experiment with ULK kinase [2]; 0.01 to 0.1 µM with ULK kinase [3]; 0.01 to 0.1 µM in the experiment with ULK kinase [4]; 0.001 to 0.1 µM at LRRK2 kinase.

For `CN1CCN(c2ccc(Nc3ncc(C(F)(F)F)c(NCCCN4CCCOC4=O)n3)c(C3CC3)c2)CC1` [Example 41], the IC50 in the experiment with ULK kinase [1] lay within 0.01 to 0.1 µM; with ULK kinase [2], 0.01 to 0.1 µM; in the experiment on ULK kinase [3], 0.01 to 0.1 µM; with ULK kinase [4], 0.01 to 0.1 µM; against LRRK2 kinase, 0.001 to 0.1 µM.

Regarding `CCc1cc(N2CCNCC2)ccc1Nc1ncc(C(F)(F)F)c(NCCCN2CCCOC2=O)n1` [Example 46], the IC50 in the experiment on ULK kinase [1] lay within 0.1 to 0.3 µM; in the experiment on ULK kinase [2], 0.1 to 0.3 µM; in the experiment on ULK kinase [3], 0.01 to 0.1 µM; in the experiment on ULK kinase [4], 0.01 to 0.1 µM; against LRRK2 kinase, 0.1 to 0.3 µM.

With `CN1CCN(c2ccc(Nc3ncc(C(F)(F)F)c(NCCCN4CCCOCC4=O)n3)c(C3CC3)c2)CC1` [Example 52], the IC50 fell in the range of 0.01 to 0.1 µM in the experiment on ULK kinase [1]; 0.1 to 0.3 µM in the experiment with ULK kinase [2]; 0.01 to 0.1 µM in the experiment with ULK kinase [3]; 0.01 to 0.1 µM in the experiment with ULK kinase [4]; 0.001 to 0.1 µM at LRRK2 kinase.

With `CN1CCN(c2ccc(Nc3ncc(Cl)c(NCCCN4CCCOCC4=O)n3)c(C3CC3)c2)CC1` [Example 55], the IC50 in the experiment on ULK kinase [1] is 0.01 to 0.1 µM; in the experiment with ULK kinase [2], 0.1 to 0.3 µM; in the experiment on ULK kinase [3], 0.01 to 0.1 µM; in the experiment with ULK kinase [4], 0.1 to 0.3 µM; against LRRK2 kinase, 0.1 to 0.3 µM.

With `CN1CCN(c2ccc(Nc3ncc(C(F)(F)F)c(NCCCN4CCOCCC4=O)n3)c(C3CC3)c2)CC1` [Example 70], the IC50 in the experiment on ULK kinase [1] lay within 0.01 to 0.1 µM; with ULK kinase [2], 0.01 to 0.1 µM; with ULK kinase [3] it was 0.01 to 0.1 µM; in the experiment with ULK kinase [4], 0.01 to 0.1 µM; on LRRK2 kinase, 0.001 to 0.1 µM.

For `CCc1cc(N2CC3CCC(C2)N3C)ccc1Nc1ncc(C(F)(F)F)c(NCCCN2CCOCCC2=O)n1` [Example 74], the IC50 in the experiment with ULK kinase [1] lay within 0.01 to 0.1 µM; in the experiment on ULK kinase [3], 0.01 to 0.1 µM; in the experiment with ULK kinase [4] it was 0.01 to 0.1 µM; on LRRK2 kinase, 0.3 to 0.6 µM.

Consider `CCc1cc(N2CCN(C)CC2)ccc1Nc1ncc(Br)c(NCCCN2CCOCCC2=O)n1` [Example 76], for which the IC50 with ULK kinase [1] is 0.01 to 0.1 µM; in the experiment with ULK kinase [3], 0.01 to 0.1 µM; in the experiment with ULK kinase [4], 0.01 to 0.1 µM; against LRRK2 kinase, 0.1 to 0.3 µM.

As to `CCc1cc(N2CCNCC2)ccc1Nc1ncc(C(F)(F)F)c(NCCCN2CCOCCC2=O)n1` [Example 84], the IC50 in the experiment on ULK kinase [1] lay within 0.01 to 0.1 µM; with ULK kinase [2], 0.1 to 0.3 µM; with ULK kinase [3] it was 0.01 to 0.1 µM; in the experiment with ULK kinase [4] it was 0.01 to 0.1 µM; on LRRK2 kinase, 0.1 to 0.3 µM.

On to `CCc1cc(N2CCN(C)CC2)c(F)cc1Nc1ncc(C(F)(F)F)c(NCCCN2CCOCCC2=O)n1` [Example 86], for which the IC50 with ULK kinase [1] was in the range of 0.1 to 0.3 µM; in the experiment with ULK kinase [2], 0.01 to 0.1 µM; in the experiment with ULK kinase [3], 0.01 to 0.1 µM; with ULK kinase [4], 0.01 to 0.1 µM; on LRRK2 kinase it was 0.001 to 0.1 µM.

For the molecule `O=C1OCCCN1CCCNc1nc(Nc2ccc(N3CCNCC3)cc2C2CC2)ncc1C(F)(F)F` [Example 99], the IC50 lay within 0.1 to 0.3 µM in the experiment with ULK kinase [2], 0.1 to 0.3 µM with ULK kinase [3], 0.01 to 0.1 µM with ULK kinase [4] and 0.001 to 0.1 µM on LRRK2 kinase.
